# Laboratory results taken from paper PMC12254266, “Multicolored sequential resonance energy transfer for detection of simultaneous ligand binding at G protein-coupled receptors” (Nature Communications, 2025).
# “And” between values parts separate entries of the source, which are not always exact repeats. Identical values can stand only once. Like-named read-outs stand apart in the source and are kept apart here.
# Key:
# Nluc-FFA1 = biological target: T1, Nluc-FFA1 (Homo sapiens, UniProt O14842); assay: NanoBRET binding (saturation, competition, kinetics) at N terminal Nluc tagged FFA1; conditions: for Specific BRET (690/450)%: Figure 4Ci; for Specific BRET (690/450)% / Specific BRET (540/450)%: technical duplicates; for Specific BRET (540/450)%: Figure 4Cii; for 'bottom' of the IC50 curve fit, Nano-BRET TUG-2591 / 'bottom' of the IC50 curve fit, Nano-BRET TUG-2597: percentage of binding in the absence of competing ligand; for 'bottom' of the IC50 curve fit, Nano-BRET TUG-2591: tracer TUG-2591 100 nM; for 'bottom' of the IC50 curve fit, Nano-BRET TUG-2597 / pIC50 Nano-BRET TUG-2597: tracer TUG-2597 […]; for pIC50 Nano-BRET TUG-2597: NBD/Nluc; for pKi Nano-BRET TUG-2597: using Kd TUG-2597 380 nM
# T1 construct: expressed in transfected cells
# FFA1-Nluc [1] = biological target: T2, FFA1-Nluc (Homo sapiens, UniProt O14842); assay: Ca2+ mobilisation antagonism of FFA1 agonists (TUG-905, T360) in Flp-In T-REx 293 cells expressing FFA1-Nluc; type: cell-based; parameters: expressed in transfected cells
# Method: Nluc-FFA1, FFA1-Nluc or untagged FFA1 Flp-In T-REx 293 cells were plated at 50,000 cells per well in poly-D-lysine coated black clear bottom 96-well plates. Cells were then cultured for 24 h until reaching confluency before culture medium was replaced with medium containing 100 ng/mL of doxycycline to induce receptor expression. Cells were cultured for a further 24 h before the assay. On the day of the assay culture medium was removed and replaced with medium containing 3 μM Fura2-AM Ca^2+ dye. […] Fura2 fluorescent emission at 520 nm following excitation with each of 340 and 380 nm was measured in regular intervals both before and after adding test compounds for a total of 90 s per well. Calcium responses were determined by taking the peak 340/380 ratio after first subtracting the ratios obtained prior to addition of test compound. […]
# Ca2+ mobilization responses were measured in
# Flp-In T-REx 293 cells expressing FFA1-Nluc. Ca2+ responses to increasing concentrations
# pre-treated with 10 μM PPTQ. The mode of antagonism for PPTQ was assessed by
# N=3 (A-D, F, H) or N=4 (E, G) independent experiments. S ource data are provided as a […]
# FFA1-Nluc [2] = biological target: T2, FFA1-Nluc; assay: NanoBRET binding (saturation, kinetics) at C terminal Nluc tagged FFA1; parameters: expressed in transfected cells; conditions: FFA1-Nluc, 95% confidence interval in parentheses
# Method: Nluc-FFA1 or FFA1-Nluc Flp-In T-REx 293 cells were plated at 50,000 cells per well in poly-D-lysine coated white 96-well plates. Cells were cultured for 24 h in the plate before medium was replaced with medium containing 100 ng/mL of doxycycline to induce receptor expression. After culturing for a further 24 h, medium was removed, cells were washed with HBSS and incubated in HBSS for 30 min. To start the assay, NanoGlo substrate (Promega, N1110) was added to the cells at a 1:800 final dilution and incubated for 10 min at 37 °C. For endpoint assays, including both saturation and competition binding, test ligands were then added, including both fluorescent and unlabelled competing ligands as indicated, and plates incubated for a further 5 min at 37 °C. NanoBRET was then quantified in a CLARIOstar microplate reader (BMG Labtech) by measuring luminescent emission with the monochrometer set for the Nluc donor at 450–60 nm, and acceptor luminescent emission 540–60 nm (NBD), 600–80 nm (Cy3.5) or 690–100 nm (SulfoCy5), depending on which fluorophore was being tested. The acceptor/donor BRET ratio was then taken as a measure of fluorophore binding. For kinetic on then off NanoBRET experiments plates were washed the same way and substrate was added to the same concentration. However, 10 min after substrate was added plates were inserted into the CLARIOstar microplate reader set to 25 °C to take repeated measurements of luminescent emission for both the donor and the acceptor fluorophore being used. After 5 min of background measurements, the indicated concentration of fluorescent ligand was added using the plate reader injector and luminescent emission was monitored for ~10 min before the reader was paused to manually add a high concentration of appropriate competing ligand to initiate dissociation. The plate was returned to the reader and luminescence measurements were continued for a further 30 min to monitor dissociation of the fluorescent ligand. For kinetic experiments using multiple concentrations of fluorescent ligand, cells were placed in the plate reader immediately after the addition of Nano-Glo substrate and luminescent measurements were taken. After 5 min, the reader was paused to add the indicated concentrations of fluorescent ligand, before measurements were continued. To set non-specific binding for kinetic experiments, the indicated competing ligand was added 5 min before the addition of the fluorescent ligand.
# [3] = Nluc-FFA1, multiple concentration of labelled ligand association model
# T1 sequence (O14842 whole entry): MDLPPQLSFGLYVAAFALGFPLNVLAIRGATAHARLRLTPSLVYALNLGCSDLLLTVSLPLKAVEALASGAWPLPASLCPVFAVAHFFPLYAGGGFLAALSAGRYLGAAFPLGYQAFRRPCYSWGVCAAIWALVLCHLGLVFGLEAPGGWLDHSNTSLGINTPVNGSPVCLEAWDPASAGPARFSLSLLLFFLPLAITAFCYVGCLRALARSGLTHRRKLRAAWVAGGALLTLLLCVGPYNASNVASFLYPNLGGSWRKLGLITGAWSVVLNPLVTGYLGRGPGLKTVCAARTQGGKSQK
# T2 sequence (O14842 whole entry): as above
SMILES,Specific BRET (690/450)% (Nluc-FFA1; log[Ligand] -5),Specific BRET (690/450)% (Nluc-FFA1; log[Ligand] -5.5),Specific BRET (690/450)% (Nluc-FFA1; log[Ligand] -6),Specific BRET (690/450)% (Nluc-FFA1; log[Ligand] -6.5),Specific BRET (690/450)% (Nluc-FFA1; log[Ligand] -7),Specific BRET (690/450)% (Nluc-FFA1; log[Ligand] -8),Specific BRET (690/450)% (Nluc-FFA1; log[Ligand] -9),Specific BRET (690/450)% (Nluc-FFA1; log[Ligand] -10),Specific BRET (540/450)% (Nluc-FFA1; log[Ligand] -7),Specific BRET (540/450)% (Nluc-FFA1; log[Ligand] -8),Specific BRET (540/450)% (Nluc-FFA1; log[Ligand] -9),Specific BRET (540/450)% (Nluc-FFA1; log[Ligand] -10),"'bottom' of the IC50 curve fit, Nano-BRET TUG-2591 (Nluc-FFA1) [%]","'bottom' of the IC50 curve fit, Nano-BRET TUG-2597 (Nluc-FFA1) [%]",pIC50 Nano-BRET TUG-2597 (Nluc-FFA1),pKi Nano-BRET TUG-2597 (Nluc-FFA1),also measured
COc1ccc(CCCC(C)(C)C)c(N2CCC(COc3cccc(C(CC(=O)O)C4CC4)c3)CC2)c1.O=C(O)C(F)(F)F (centres unmarked) [T360],144.71% and 144.91% and 150.40% and 149.82% and 134.29% and 145.90%,150.41% and 165.34% and 156.87% and 151.43% and 153.00% and 148.40%,147.37% and 160.23% and 150.08% and 152.06% and 150.91% and 153.01%,152.25% and 156.48% and 155.51% and 156.07% and 157.69% and 151.71%,145.58% and 149.69% and 148.14% and 147.21% and 151.85% and 147.91%,131.96% and 136.95% and 136.24% and 131.47% and 126.78% and 129.57%,110.80% and 118.14% and 114.71% and 107.71% and 113.55% and 115.30%,99.19% and 105.01% and 94.99% and 98.91% and 101.09% and 100.81%,53.44% and 33.59% and 38.71% and 49.07% and 47.92% and 48.08% and 44.12% and 39.90%,84.61% and 81.81% and 70.02% and 81.70% and 81.41% and 76.64% and 80.12%,105.73% and 99.36% and 90.61% and 103.73% and 98.31% and 99.33% and 93.77%,104.20% and 95.80% and 91.09% and 108.91% and 101.37% and 98.63% and 98.32% and 101.68%,150,5.3,7.1±0.03,7.4±0.03,"Specific BRET (540/450)% (Nluc-FFA1; log[Ligand] -6.5): 37.02% and 22.26% and 31.97% and 27.51% and 29.14% and 29.84% and 21.82% and 24.91%; Ca2% Response (%) (FFA1-Nluc [1]; log[T360] -5, Veh (no antagonist), Sup Figure 6B/6D): 93.75% and 106.25% and 103.05% and 96.95%; Ca2% Response (%) (FFA1-Nluc [1]; log[T360] -5, with 1 μM GW1100): 103.36% and 82.58% and 106.13% and 87.84% and 101.04% and 85.87%; Ca2% Response (%) (FFA1-Nluc [1]; log[T360] -6, 10 μΜ (antagonist not given), Sup Figure 6F): 76.18% and 67.98% and 49.56% and 55.62% and 87.66% and 92.64%; Ca2% Response (%) (FFA1-Nluc [1]; log[T360] -6, Veh (no antagonist), Sup Figure 6B/6D): 104.34% and 101.89% and 110.55% and 104.28% and 99.18% and 100.82%; Ca2% Response (%) (FFA1-Nluc [1]; log[T360] -6, Veh (no antagonist), Sup Figure 6F): 99.06% and 95.34% and 97.85% and 90.61% and 102.43% and 99.32%; Ca2% Response (%) (FFA1-Nluc [1]; log[T360] -6, column head 1.0 μM (antagonist not given), Sup Figure 6F): 76.88% and 59.19% and 87.71% and 76.79% and 92.25% and 102.12%; Ca2% Response (%) (FFA1-Nluc [1]; log[T360] -6, with 1 μM GW1100): 91.67% and 83.66% and 88.97% and 81.49% and 113.97% and 109.62%; Ca2% Response (%) (FFA1-Nluc [1]; log[T360] -6.5, Veh (no antagonist), Sup Figure 6F): 94.10% and 96.59% and 92.66% and 91.86% and 93.32% and 89.24%; Ca2% Response (%) (FFA1-Nluc [1]; log[T360] -6.5, column head 1.0 μM (antagonist not given), Sup Figure 6F): 60.34% and 48.04% and 59.96% and 55.53% and 61.67% and 49.63%; Ca2% Response (%) (FFA1-Nluc [1]; log[T360] -7, Veh (no antagonist), Sup Figure 6B/6D): 82.83% and 93.76% and 57.76% and 86.64% and 99.93%; Ca2% Response (%) (FFA1-Nluc [1]; log[T360] -7, Veh (no antagonist), Sup Figure 6F): 93.07% and 80.87% and 91.43% and 68.96% and 59.63% and 63.91%; Ca2% Response (%) (FFA1-Nluc [1]; log[T360] -7, column head 1.0 μM (antagonist not given), Sup Figure 6F): 3.96% and 7.11% and 12.73% and 6.84% and 9.24% and 5.08%; Ca2% Response (%) (FFA1-Nluc [1]; log[T360] -8, 10 μΜ (antagonist not given), Sup Figure 6F): 1.71% and -1.05% and -0.90%; Ca2% Response (%) (FFA1-Nluc [1]; log[T360] -8, column head 1.0 μM (antagonist not given), Sup Figure 6F): -0.81% and -3.31% and 3.71% and 5.53%; Ca2% Response (%) (FFA1-Nluc [1]; log[T360] -9, Veh (no antagonist), Sup Figure 6B/6D): 2.38% and -2.45% and 0.48% and 0.09% and -1.34% and 1.34%; Ca2% Response (%) (FFA1-Nluc [1]; log[T360] -11, Veh (no antagonist), Sup Figure 6B/6D): -3.34% and -2.39% and -1.53% and 0.46% and 1.72% and -0.55%"
"COc1ccc(C(=O)N(CC(C)(C)C)c2cccc(C)n2)c(N2CCC(COc3cccc(C(CC(=O)O)C4CC4)c3)CC2)c1.O=C(O)C(F)(F)F (centres unmarked) [Cpd 6h, reference compound]",154.01% and 159.82% and 184.44% and 164.18% and 149.89% and 140.91%,149.18% and 149.96% and 186.01% and 169.50% and 140.81% and 140.26%,148.97% and 147.78% and 172.23% and 173.39% and 141.21% and 145.62%,146.95% and 143.16% and 174.27% and 175.78% and 147.71% and 149.19%,142.54% and 138.75% and 174.07% and 180.89% and 144.33% and 137.24%,121.15% and 120.06% and 152.10% and 144.46% and 121.71% and 120.62%,105.22% and 101.22% and 121.39% and 115.73% and 104.79% and 106.52%,100.55% and 99.45% and 103.65% and 96.35% and 96.40% and 103.60%,19.25% and 26.02% and 25.79% and 30.80% and 33.39% and 36.04%,119.18% and 117.93% and 79.82% and 76.64% and 93.10% and 100.29%,109.78% and 127.71% and 86.42% and 90.20% and 105.18% and 118.46%,94.36% and 105.64% and 98.39% and 101.61% and 82.28% and 117.72%,160,-16,7.2±0.03,7.5±0.03,–
Cc1cc(OCCCNC(=O)CCCN2\C(=C/C=C/C=C/C3=[N+](C)c4ccc(S(=O)(=O)[O-])cc4C3(C)C)C(C)(C)c3ccccc32)ccc1-c1cccc(COc2ccc(CCC(=O)O)c(F)c2)c1 [TUG-2591],–,–,–,–,–,–,–,–,–,–,–,–,–,–,–,–,"Kd (Nluc-FFA1; Nluc-FFA1, 95% confidence interval in parentheses, read-out: Kd, saturation BRET binding): 210 nM; kOn Nano-BRET (Nluc-FFA1; Nluc-FFA1, association then dissociation model): 26666.67 M⁻¹ s⁻¹; kOff Nano-BRET (Nluc-FFA1; Nluc-FFA1, association then dissociation model, TUG-2591 100 nM then TUG-905 10 μM, or TUG-2597 […] then T360 10 μM): 0.00683 s⁻¹; Kd (Nluc-FFA1; Nluc-FFA1, association then dissociation model, read-out: Kd Nano-BRET (kinetic)): 250 nM; kOff Nano-BRET Multiple Concentration (Nluc-FFA1; [3]): 0.0207 s⁻¹; kOn Nano-BRET Multiple Concentration (Nluc-FFA1; [3]): 125000 M⁻¹ s⁻¹; Kd (Nluc-FFA1; Nluc-FFA1, read-out: Kd Nano-BRET Multiple Concentration (kinetic)): 170 nM; BMax, saturation BRET binding (Nluc-FFA1; Nluc-FFA1, specific BRET, 95% confidence interval in parentheses): 0.31 (0.27-0.37); kOff Nano-BRET Allosterism, Nluc-FFA1 (Nluc-FFA1; TUG-2591 (1 μM) in the presence of T360 (30μM), TUG-2597 (1 μM) in the presence of TUG-905 (30μM), 95% CI in parentheses): 0.034 (0.032-0.035) min-1; Kd (Nluc-FFA1; footnotes of Supplementary Table 3, read-out: Kd values obtained in NanoBRET saturation experiments (used for pKi) (converted)): 200 nM; off-rate, times faster in single ligand NanoBRET compared with dual ligand DISCo-BRET (Nluc-FFA1; ratio of off-rates): ~ 10; Kd (FFA1-Nluc [2]; read-out: Kd, saturation BRET binding): 23 nM; BMax, saturation BRET binding (FFA1-Nluc [2]; specific BRET): 0.035 (0.032−0.038)"
